Laboratory results as given in the supplement of paper PMC12076712.

Assays:
Experiment in all cases: pIC50, kinobeads binding competition
Details in all cases: cell material: Jurkat lysate
MASTL = target: T1, MASTL (UniProt Q96GX5)
T1 sequence (whole entry): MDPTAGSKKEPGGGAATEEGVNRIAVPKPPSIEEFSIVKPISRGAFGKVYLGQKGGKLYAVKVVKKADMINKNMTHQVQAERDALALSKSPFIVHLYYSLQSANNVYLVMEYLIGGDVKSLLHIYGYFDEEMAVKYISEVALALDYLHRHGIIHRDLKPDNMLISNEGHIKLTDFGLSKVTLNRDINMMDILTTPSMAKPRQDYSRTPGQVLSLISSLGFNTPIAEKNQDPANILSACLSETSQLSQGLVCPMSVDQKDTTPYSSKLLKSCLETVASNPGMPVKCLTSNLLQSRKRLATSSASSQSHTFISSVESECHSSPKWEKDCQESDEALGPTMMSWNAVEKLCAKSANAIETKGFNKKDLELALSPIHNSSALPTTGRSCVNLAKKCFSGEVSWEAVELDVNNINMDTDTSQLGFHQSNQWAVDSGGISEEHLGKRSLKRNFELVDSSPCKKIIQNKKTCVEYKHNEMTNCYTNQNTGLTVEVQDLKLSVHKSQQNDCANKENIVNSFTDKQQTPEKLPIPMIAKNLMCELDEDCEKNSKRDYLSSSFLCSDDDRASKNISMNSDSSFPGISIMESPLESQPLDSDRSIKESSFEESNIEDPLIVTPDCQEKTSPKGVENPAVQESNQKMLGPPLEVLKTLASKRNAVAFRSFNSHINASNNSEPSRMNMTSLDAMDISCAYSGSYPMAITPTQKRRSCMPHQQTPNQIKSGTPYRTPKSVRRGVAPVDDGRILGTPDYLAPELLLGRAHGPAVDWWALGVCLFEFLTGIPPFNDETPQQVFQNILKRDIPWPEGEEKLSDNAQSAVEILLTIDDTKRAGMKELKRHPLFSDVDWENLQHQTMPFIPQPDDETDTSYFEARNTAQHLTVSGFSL

PDIK1L = PDIK1L (UniProt Q8N165)
SNRK = target: T2, SNRK (UniProt Q9NRH2)
T2 sequence (whole entry): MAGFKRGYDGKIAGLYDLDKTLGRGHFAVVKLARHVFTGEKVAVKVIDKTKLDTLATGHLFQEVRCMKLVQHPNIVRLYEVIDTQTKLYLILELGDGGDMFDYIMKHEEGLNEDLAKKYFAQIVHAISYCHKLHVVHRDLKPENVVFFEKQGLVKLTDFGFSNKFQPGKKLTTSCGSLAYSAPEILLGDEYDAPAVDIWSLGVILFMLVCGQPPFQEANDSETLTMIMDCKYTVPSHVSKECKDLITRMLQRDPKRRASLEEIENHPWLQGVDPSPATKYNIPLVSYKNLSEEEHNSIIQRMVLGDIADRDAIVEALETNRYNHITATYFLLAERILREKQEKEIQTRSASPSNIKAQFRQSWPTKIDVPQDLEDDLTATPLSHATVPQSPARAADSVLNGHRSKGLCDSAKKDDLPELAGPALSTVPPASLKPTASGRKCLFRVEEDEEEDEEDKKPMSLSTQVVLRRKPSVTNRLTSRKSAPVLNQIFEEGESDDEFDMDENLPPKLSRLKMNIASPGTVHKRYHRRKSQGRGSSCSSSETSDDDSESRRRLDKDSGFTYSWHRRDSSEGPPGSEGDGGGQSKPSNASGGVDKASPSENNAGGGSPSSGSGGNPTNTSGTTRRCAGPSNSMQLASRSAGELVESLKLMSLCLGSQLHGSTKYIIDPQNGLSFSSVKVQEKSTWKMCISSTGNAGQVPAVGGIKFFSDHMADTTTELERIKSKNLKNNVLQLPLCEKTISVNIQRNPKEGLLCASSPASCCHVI

TNIK = TNIK (UniProt Q9UKE5)
TP53RK = target: T3, TP53RK (UniProt Q96S44)
T3 sequence (whole entry): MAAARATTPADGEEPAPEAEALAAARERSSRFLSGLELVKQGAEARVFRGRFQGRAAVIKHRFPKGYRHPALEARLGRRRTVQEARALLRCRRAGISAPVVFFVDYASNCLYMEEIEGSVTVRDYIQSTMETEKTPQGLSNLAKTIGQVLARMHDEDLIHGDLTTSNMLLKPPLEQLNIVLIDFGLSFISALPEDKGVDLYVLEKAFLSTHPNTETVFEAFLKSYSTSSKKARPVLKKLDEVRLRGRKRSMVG

UniProt P35626 = target: T4, UniProt P35626
T4 sequence (whole entry): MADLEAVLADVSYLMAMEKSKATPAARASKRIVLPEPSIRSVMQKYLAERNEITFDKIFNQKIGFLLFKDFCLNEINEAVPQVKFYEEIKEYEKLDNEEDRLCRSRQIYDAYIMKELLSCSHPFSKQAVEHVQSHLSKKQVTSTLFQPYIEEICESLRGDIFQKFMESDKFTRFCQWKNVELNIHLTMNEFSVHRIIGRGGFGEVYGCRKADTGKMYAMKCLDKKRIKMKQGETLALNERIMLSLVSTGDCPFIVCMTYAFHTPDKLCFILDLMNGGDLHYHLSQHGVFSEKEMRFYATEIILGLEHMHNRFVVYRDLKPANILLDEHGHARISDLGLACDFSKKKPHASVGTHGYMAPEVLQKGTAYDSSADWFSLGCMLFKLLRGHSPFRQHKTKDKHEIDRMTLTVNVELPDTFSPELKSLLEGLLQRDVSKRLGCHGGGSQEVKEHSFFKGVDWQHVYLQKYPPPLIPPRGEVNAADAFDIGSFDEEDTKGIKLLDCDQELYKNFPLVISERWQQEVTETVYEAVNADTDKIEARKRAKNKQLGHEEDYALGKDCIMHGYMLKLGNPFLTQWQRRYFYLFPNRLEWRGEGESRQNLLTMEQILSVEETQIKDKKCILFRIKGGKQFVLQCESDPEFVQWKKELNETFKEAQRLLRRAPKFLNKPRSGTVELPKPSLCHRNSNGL

UniProt Q9Y2H1 = target: UniProt Q9Y2H1
Chain of UniProt Q9Y2H1 (Q9Y2H1 whole entry, looked up): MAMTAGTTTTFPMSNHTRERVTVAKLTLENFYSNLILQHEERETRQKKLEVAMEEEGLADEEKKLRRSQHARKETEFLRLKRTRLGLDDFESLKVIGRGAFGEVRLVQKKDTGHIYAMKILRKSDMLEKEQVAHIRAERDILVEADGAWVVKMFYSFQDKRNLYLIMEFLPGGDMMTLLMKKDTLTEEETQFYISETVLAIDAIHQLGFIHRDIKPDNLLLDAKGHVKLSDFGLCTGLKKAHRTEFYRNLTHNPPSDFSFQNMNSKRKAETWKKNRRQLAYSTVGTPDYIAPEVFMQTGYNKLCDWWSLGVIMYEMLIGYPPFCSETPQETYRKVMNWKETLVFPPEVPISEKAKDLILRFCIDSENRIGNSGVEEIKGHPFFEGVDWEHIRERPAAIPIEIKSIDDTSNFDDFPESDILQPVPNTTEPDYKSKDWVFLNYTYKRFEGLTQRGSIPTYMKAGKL

Chain of TNIK (Q9UKE5 whole entry, looked up): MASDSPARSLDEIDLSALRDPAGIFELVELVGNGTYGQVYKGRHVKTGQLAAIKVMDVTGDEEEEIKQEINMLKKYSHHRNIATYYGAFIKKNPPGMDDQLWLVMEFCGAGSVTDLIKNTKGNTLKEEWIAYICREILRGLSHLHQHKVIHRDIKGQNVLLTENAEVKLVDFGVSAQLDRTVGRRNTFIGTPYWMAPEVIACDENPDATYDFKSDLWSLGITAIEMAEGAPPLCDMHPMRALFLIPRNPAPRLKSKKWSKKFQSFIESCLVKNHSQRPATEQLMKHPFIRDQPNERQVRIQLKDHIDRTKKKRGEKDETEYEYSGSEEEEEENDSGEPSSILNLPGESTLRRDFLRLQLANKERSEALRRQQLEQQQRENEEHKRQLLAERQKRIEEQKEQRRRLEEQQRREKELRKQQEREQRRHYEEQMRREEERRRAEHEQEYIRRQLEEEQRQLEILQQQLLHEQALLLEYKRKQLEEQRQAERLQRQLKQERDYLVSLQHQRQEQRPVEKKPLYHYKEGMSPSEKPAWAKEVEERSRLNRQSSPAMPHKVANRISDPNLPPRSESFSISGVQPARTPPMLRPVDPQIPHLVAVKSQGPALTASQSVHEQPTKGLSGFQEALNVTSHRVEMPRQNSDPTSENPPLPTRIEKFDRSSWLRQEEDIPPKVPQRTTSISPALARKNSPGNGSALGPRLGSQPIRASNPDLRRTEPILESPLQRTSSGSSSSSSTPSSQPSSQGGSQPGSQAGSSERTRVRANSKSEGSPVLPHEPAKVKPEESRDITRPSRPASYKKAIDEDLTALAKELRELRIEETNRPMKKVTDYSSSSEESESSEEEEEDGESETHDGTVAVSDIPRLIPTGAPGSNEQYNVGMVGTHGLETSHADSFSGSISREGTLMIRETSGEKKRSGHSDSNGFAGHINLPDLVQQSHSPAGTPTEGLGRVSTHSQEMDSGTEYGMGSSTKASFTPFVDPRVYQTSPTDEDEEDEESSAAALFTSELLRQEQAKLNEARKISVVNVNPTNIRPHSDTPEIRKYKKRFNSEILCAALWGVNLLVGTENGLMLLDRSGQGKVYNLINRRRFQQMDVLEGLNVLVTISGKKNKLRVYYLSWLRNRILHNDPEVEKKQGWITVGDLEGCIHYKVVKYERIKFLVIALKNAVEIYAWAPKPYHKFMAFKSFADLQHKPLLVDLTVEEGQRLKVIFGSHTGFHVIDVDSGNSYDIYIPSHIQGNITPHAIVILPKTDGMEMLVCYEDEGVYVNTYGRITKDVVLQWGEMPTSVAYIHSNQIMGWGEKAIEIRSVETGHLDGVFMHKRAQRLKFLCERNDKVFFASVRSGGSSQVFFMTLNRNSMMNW
Chain of PDIK1L (Q8N165 whole entry): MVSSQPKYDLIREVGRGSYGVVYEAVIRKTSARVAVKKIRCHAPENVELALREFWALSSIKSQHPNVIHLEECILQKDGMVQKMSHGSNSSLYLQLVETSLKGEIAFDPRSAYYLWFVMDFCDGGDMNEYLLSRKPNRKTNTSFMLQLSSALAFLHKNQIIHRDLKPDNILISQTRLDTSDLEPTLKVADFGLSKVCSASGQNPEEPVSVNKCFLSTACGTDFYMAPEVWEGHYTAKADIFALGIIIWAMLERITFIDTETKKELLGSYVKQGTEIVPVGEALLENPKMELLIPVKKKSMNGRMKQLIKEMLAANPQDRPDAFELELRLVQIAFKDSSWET

pIC50 (MASTL): < 4.52 | pIC50 (PDIK1L): < 4.52 | pIC50 (SNRK): < 4.52 | pIC50 (TNIK): < 4.52 | pIC50 (TP53RK): < 4.52 | pIC50 (UniProt P35626): < 4.52 | pIC50 (UniProt Q9Y2H1): < 4.52
Compound: CCc1cnn2c(NCc3ccc[n+]([O-])c3)cc(N3CCCC[C@H]3CCO)nc12 [dinaciclib]
